According to EP4653450A1 (priority 2023, dated 2024):
Values joined by “and” are separate entries in the source; they are usually repeats but may differ in a detail not shown here. Identical values can stand only once.

Assays:
[1] = test system: SARS-CoV-2 Delta strain; conditions: mouse, in vivo
[2] = test system: 47 safety-related targets
Excerpt: For 78 tests related to 47 safe targets, the experimental methods used included: cAMP assay, calcium flux assay, hormone nuclear receptor assay, kinase binding assay, enzyme activity assay, neurotransmitter transporter assay, ion channel assay, and transporter assay.

[3] = test system: human plasma protein
Description: Human plasma was purchased from BioIVT, anticoagulated with EDTA K2, and stored at -80 °C. The 96-well equilibrium dialysis plate was purchased from HTDialysis LLC. The equilibrium dialysis membrane was purchased from Gales Ferry.
The alkaline solution was titrated with the acidic solution until the pH value was 7.4, and the buffer could be stored at 4 °C for 7 days.
The dialysis membrane was soaked in ultrapure water for 60 min to separate the membrane into two pieces, then soaked with 20% ethanol for 20 min, and finally soaked with dialysis buffer for 20 min.
The frozen plasma was quickly thawed at room temperature.
The plasma was then centrifuged at 4 °C for 10 min at a centrifugal force of 3,220 g to remove clots, and the supernatant was collected into a new centrifuge tube. The pH of the plasma was measured and recorded.
A 10 mM DMSO stock solution of the test substance was prepared. 2 µL of the stock solution (10 mM) was diluted with 98 µL of DMSO to give a working solution (200 µM). […]
50 µL of blank plasma was added to the phosphate-buffered saline sample. […] The mixture was well mixed, and the sample was analyzed using liquid chromatography-mass spectrometry.
All calculations were performed by Microsoft Excel. The peak areas of the test substance on the buffer side and the plasma side were determined. […]

[4] = cynomolgus monkey, in vivo
[5] = test system: SARS-CoV-2 Delta strain (B.1.617.2); experiment: microbe, parasite or virus in culture; conditions: Severe acute respiratory syndrome coronavirus 2, Vero C1008
[6] = test system: SARS-CoV-2 Omicron strain (B.1.1.529); experiment: microbe, parasite or virus in culture; conditions: Severe acute respiratory syndrome coronavirus 2, Vero C1008

## CC(C)(C)C(NC(=O)C(F)(F)F)C(=O)N1CC2(CC1C(=O)NC(C#N)CC1CCNC1=O)SCCS2 (stereo not shown) [Compound of formula (I)]
[1]
  Brain tissue (log10 copies/mg) Day 2: 1.04±0.24 log10 copies/mg and 0.77±0.20 log10 copies/mg
  body weight: not significantly reduced
  effect on viral titer in the lungs: sustained inhibitory effect
  histopathological analysis of the lungs: significantly ameliorated lung damage
  reduction of viral copy number in the lungs: 2.4 log10 copies/g
  reduction of viral titer in the lungs (plaque assay): more than 3 log10 PFU/g
  viral titer in the lungs (plaque assay): the titer was not detected
  virus titer in the brains: no virus titer was detected
[2]
  EC50: > 100000 nM
[3]
  Free rate (F%) Replicate 1: 48.71%
  Free rate (F%) Replicate 2: 44.55%
[4]
  arrhythmia: no test sample-related arrhythmia was observed
  cardiovascular system changes: no test sample-related cardiovascular system changes were observed
  changes in ECG parameters or blood pressure: no test sample-related changes in ECG parameters or blood pressure were observed
[5]
  IC50: 40 nM
[6]
  IC50: 120 nM
